# Test results from US7855200B2, “Method for treatment of gastric ulcers and ulcers induced by aspirin” (Council of Scientific and Industrial Research, priority 2006, dated 2010).
# How the values were obtained:
# Format in all cases: in vivo, albino rats
# [1] = system: acetyl salicylic acid induced gastric lesions; assay: Acetyl salicylic acid (aspirin) induced gastric ulcer; design: Ulcer index Mean(SE): scale not given here; conditions: rats, aspirin 200 mg/kg
# Description: Stress induced gastric ulceration The commercially available drug ranitidine (sigma), Omeprazole (sigma) and sucralfate (Merck) were used as reference standard in experimental models. The Tween-80 (SD fine chemicals) was used as vehicle for the administration of the drug, which is used as control. Antiulcer activity of the compounds under taken was studied. The animals were divided into 20 groups of 6 animals each. Group 1 received the vehicle Tween 80 (1%, 1 ml) which served as the control. Group 2 received ranitidine at a dose of 50-mg/kg body weight, which served as standard for comparison. Group 3 to 20 at a dose of 25 mg/kg body weight. Rats were administered per orally with a daily dose of the compounds and the drug ranitidine for a period of five days and then fasted for 24 hours. The […] acetyl salicylic acid (aspirin) at a dose of 200 mg/kg body weight was administered as a suspension in tween-80 (1%), 30 min after the drug administration each day. All drugs were administered orally on the 6th day after the last administration of the drugs and the ulcer inducing agent aspirin, the rats were killed by cervical dislocation and their stomach were opened along the greater curvature and washed with luke warm saline and examined under a dissecting microscope. The ulcer index was calculated for each stomach. […] The antiulcer activity of the compounds was studied. The animals were divided into 19 groups of 6 animals each. Group 1 received the vehicle Tween 80 (1%, 1 ml) which served as the control. Group 2 received ranitidine at a dose of 50-mg/kg-body weight, which served as standard for comparison. […] Rats were administered per orally with a daily dose of the compounds and the drug ranitidine to respective groups for a period of five days and then fasted for 24 hours. The […] acetyl salicylic acid (aspirin) at a dose of 200 mg/kg body weight was administered as a suspension in tween-80 (1%), 30 min after the drug administration each day. All drugs were administered orally on ht […] day after the last administration of the drugs and the ulcer inducing agent aspirin, the rats were killed by cervical dislocation and their stomach were opened along the greater curvature and washed with luke warm saline and examined under a dissecting microscope.
# [2] = system: ethanol induced gastric ulcers; assay: Ethanol induced ulcers; conditions: rats, ethanol challenge; for Acidity Total mEg / Gastric content / pH: 4 hours after pylorus ligation
# Description: Stress induced gastric ulceration The commercially available drug ranitidine (sigma), Omeprazole (sigma) and sucralfate (Merck) were used as reference standard in experimental models. The Tween-80 (SD fine chemicals) was used as vehicle for the administration of the drug, which is used as control. The animals were divided into 22 groups of 6 animals each. Animals were deprived of food for 48 hours but had free access to water. Group 1 received the vehicle Tween 80 (1%, 1 ml) which served as the control. Group 2 received ranitidine at a dose of 50-mg/kg-body weight, which served as standard for comparison. Group 3 to received Omeprazole at a dose of 30-mg/kg body weight, which served as standard for comparison. Group 4 received sucralfate at a dose of 400-mg/kg body weight, which served as standard for comparison. Group 5 to 22 received at a dose of 25 mg/kg body weight. Lesions were induced 1 hour after ethanol challenge animals. The stomach was ligated at the pylorus under ether anesthesia. 4 hours after pylorus ligation, the animals were sacrificed and the contents drained and centrifuges at 5000 rpm for 10 minutes. Aliquots of supernatant were used for determination of total acid by titrating with 0.01N NaOH using topfers reagent and phenolphthalein indicators. […] The animals were divided into 9 groups of 6 animals each. Animals were deprived of food for 48 hours but had free access to water. Group 1 received the vehicle Tween 80 (1%, 1 ml) which served as the control. Group 2 received ranitidine at a dose of 50-mg/kg-body weight, which served as standard for comparison. Group 3 to received Omeprazole at a dose of 30-mg/kg body weight, which served as standard for comparison. Group 4 received sucralfate at a dose of 400-mg/kg body weight, which served as standard for comparison. […] Lesions were induced 1 hour after ethanol challenge animals. The stomach was ligated at the pylorus under ether anesthesia. 4 hours after pylorus ligation, the animals were sacrificed and the contents drained and centrifuges at 5000 rpm for 10 minutes. Aliquots of supernatant were used for determination of total acid by titrating with 0.01N NaOH using topfers reagent and phenolphthalein indicators.
# [3] = system: gastric ulceration in cold restraint rats; assay: Cold restraint (stress) induced ulcers; design: Ulcer index Mean(SE): scale not given here; conditions: rats, 4° C. for 2 hours
# From the text: (§1) The compounds taken under study for antigastric ulcer screening by four different models were selected using experimental albino rats: • 1. Aspirin induced gastric ulceration • 2. Pylorus ligated gastric ulceration • 3. Ethanol induced gastric ulceration • 4. Stress induced gastric ulceration
# (§2) The commercially available drug ranitidine (sigma), Omeprazole (sigma) and sucralfate (Merck) were used as reference standard in experimental models. The Tween-80 (SD fine chemicals) was used as vehicle for the administration of the drug, which is used as control.
# (§3) The antiulcer activity of the compounds was studied. The animals were divided into 21 groups of 7 animals each. Group 1 received the vehicle Tween 80 (1%, 1 ml) which served as the control. Group 2 received ranitidine at a dose of 50-mg/kg body weight, which served as standard for comparison. Group 3 to 21 at a dose of 25 mg/kg body weight. Animals were deprived of food 48 hours before the experiment. The water was allowed for free access. Rats were administered per orally with compounds and the drug ranitidine. The water was removed 1 hour before restraint and exposed to a temperature of 4° C. for 2 hours. Two hours after stress, the animals were sacrificed. The stressed animals were opened along the greater curvature and the severity of gastric ulcer was assessed in terms of mean ulcer index. 2.
# as §3, with “8” for “21”, “6” for “7”, “50, 25, 15, 10 and 5” for “25”, “weight respectively.” for “weight.”, “index.” for “index. 2.”
# Pylorus ligated rats = assay: Pylorus ligated ulcers; conditions: 4 hours after pylorus ligation
# From the text: as §1, §2
# The animals were divided into 19 groups of 6 animals each. Animals were deprived of food for 48 hours but had free access to water. Group 1 received the vehicle Tween 80 (1%, 1 ml) which served as the control. Group 2 received ranitidine at a dose of 50-mg/kg-body weight, which served as standard for comparison. […] After one hour of administration of drug the stomach was ligated at the pylorus under ether anesthesia. 4 hours after pylorus ligation, the animals were sacrificed and the contents drained and centrifuges at 5000 rpm for 10 minutes. Aliquots of supernatant were used for determination of total acid by titrating with 0.01N NaOH using topfers reagent and phenolphthalein indicators. 4.
# The animals were divided into 7 groups of 6 animals each. Animals were deprived of food for 48 hours but had free access to water. Group 1 received the vehicle Tween 80 (1%, 1 ml) which served as the control. Group 2 received ranitidine at a dose of 50-mg/kg-body weight, which served as standard for comparison. Group 3 to 7 received at a dose of 50, 25, 15, 10 and 5 mg/kg body weight respectively. After one hour of administration of drug the stomach was ligated at the pylorus under ether anesthesia. 4 hours after pylorus ligation, the animals were sacrificed and the contents drained and centrifuges at 5000 rpm for 10 minutes. Aliquots of supernatant were used for determination of total acid by titrating with 0.01N NaOH using topfers reagent and phenolphthalein indicators.
# [4] = Rattus norvegicus, po, 120 h, 25 mg/kg per orally daily for five days
# [5] = 25 mg/kg per orally daily for five days
# [6] = Rattus norvegicus, po, 25 mg/kg per orally
SMILES,"inhibition at 25 mg/kg [1, 4] [%]","Ulcer index Mean(SE) [1, 5]","inhibition at 25 mg/kg ([2]; Rattus norvegicus, 25 mg/kg) [%]",Ulcer index Mean(SE) ([2]; 25 mg/kg),Acidity Total mEg ([2]; 25 mg/kg),Gastric content ([2]; 25 mg/kg),pH ([2]; 25 mg/kg),"inhibition at 25 mg/kg [3, 6] [%]",Ulcer index Mean(SE) ([3]; 25 mg/kg per orally),Acidity Total mEg (Pylorus ligated rats; 25 mg/kg),Gastric content (Pylorus ligated rats; 25 mg/kg),Ulcer index Mean(SE) (Pylorus ligated rats; 25 mg/kg),pH (Pylorus ligated rats; 25 mg/kg),"inhibition at 25 mg/kg (Pylorus ligated rats; Rattus norvegicus, 25 mg/kg) [%]","Inhibition % [1, 5] [%]",Inhibition % ([2]; 25 mg/kg) [%],Inhibition % ([3]; 25 mg/kg per orally) [%],Inhibition % (Pylorus ligated rats; 25 mg/kg) [%],further results
"COc1c(OC2OC(C(=O)O)C(O)C(O)C2O)cc2oc(-c3ccccc3)cc(=O)c2c1O (stereo not shown) [OA-5 acid, 3,4,5-Trihydroxy-6-(5-hydroxy-6-methoxy-4-oxo-2-phenyl-4H-chromen-7-yloxy)-tetrahydro-pyran-2-carboxylic acid]",48.3,23.33,45,36.66 (±3.33),47.66 (±1.45) mEg,5.50 (±0.28),3.20 (±0.17),41.9,23.33,41.00 (±0.57) m Eg,2.16 (±0.16),38.33 (±1.66),3.03 (±0.03),23.5,,,,,
"COc1c(OC2OC(CO)C(O)C(O)C2O)cc2oc(-c3ccccc3)cc(=O)c2c1O (stereo not shown) [OA-G, 5-Hydroxy-6-methoxy-2-phenyl-7-(3,4,5-trihydroxy-6-hydroxyrnethyl-tetrahydro-pyran-2-yloxy)-chromen-4-one]",,30.66,,53.33 (±6.66),36.66 (±0.88) mEg,4.33 (±0.11),4.31 (±0.11),,32.33,41.66 (±1.66) m Eg,,35.00 (±2.88),3.20 (±0.15),,32.05,20.00,19.52,30.16,
"CCCCCCCCCCCCCCCCC(=O)Oc1cc2oc(-c3ccccc3)cc(=O)c2c(O)c1OC [ORC-16, Heptadecanoic acid 5-hydroxy-6-methoxy-4-oxo-2-phenyl-4H-chromen-7-yl ester]",13.3,39.13,22.8,51.50 (±1.05),43.20 (±3.86) mEg,3.7 (±0.10),3.58 (±0.23),14,35.00,42.20 (±2.20) m Eg,1.92 (±0.20),43.33 (±2.10),3.66 (±0.20),,,,,,
"COc1c(OC(=O)c2ccc(C)cc2)cc2oc(-c3ccccc3)cc(=O)c2c1O [ORPM-1, 4-methyl-benzoic acid 5-hydroxy-6-methoxy-4-oxo-2-phenyl-4-H-chromen-7-yl ester]",,37.49,,47.50 (±1.11),44.24 (±0.62) mEg,3.0 (±1.50),3.50 (±0.18),,22.85,45.24 (±0.30) m Eg,2.20 (±0.22),41.66 (±2.78),3.20 (±0.25),,16.91,28.75,24.23,16.87,
"COc1c(O)cc2oc(-c3ccccc3)cc(=O)c2c1O [Oroxylin A, 5,7-Dihydroxy-6-methoxy-2-phenylchromen-4-one]",5.81,42.50,27.5,48.33 (±3.33),48.24 (±2.84) mEg,4.0 (±0.45),3.19 (±0.73),5.26,38.57,55.24 (±2.40) m Eg,2.30 (±0.42),50.80 (±2.00),2.74 (±0.24),0,,,,,
"CNC(=C[N+](=O)[O-])NCCSCc1ccc(CN(C)C)o1 [Ranitidine, ranitidine, reference compound]",,,,,,,,,,,,,,,,,,,"inhibition at 50 mg/kg ([1]; Rattus norvegicus, po, 120 h, 50 mg/kg per orally daily for five days): 74.2%; Ulcer index Mean(SE) ([1]; 50 mg/kg per orally daily for five days): 11.66; inhibition at 50 mg/kg ([2]; Rattus norvegicus, 50 mg/kg): 61.3%; Ulcer index Mean(SE) ([2]; 50 mg/kg): 25.83 (±2.22); Acidity Total mEg ([2]; 50 mg/kg): 26.74 (±1.54) mEg; Gastric content ([2]; 50 mg/kg): 5.0 (±0.48); pH ([2]; 50 mg/kg): 4.96 (±0.13); inhibition at 50 mg/kg ([3]; Rattus norvegicus, po, 50 mg/kg per orally): 78.8%; Ulcer index Mean(SE) ([3]; 50 mg/kg per orally): 08.62; Acidity Total mEg (Pylorus ligated rats; 50 mg/kg): 31.8 (±1.91) m Eg; Gastric content (Pylorus ligated rats; 50 mg/kg): 1.82 (±0.44); Ulcer index Mean(SE) (Pylorus ligated rats; 50 mg/kg): 10.83 (±3.21); pH (Pylorus ligated rats; 50 mg/kg): 4.75 (±0.22); inhibition at 50 mg/kg (Pylorus ligated rats; Rattus norvegicus, 50 mg/kg): 78.4%"
